# Measured values reported in PMC2574866 (Drug metabolism and disposition: the biological fate of …, 2008).
# Like-named read-outs stand apart in the source and are kept apart here.
# Key:
# [1] = tested on: sandwich-cultured rat hepatocytes; settings: for biliary excretion index (BEI), effect of BSA-FAF / unbound intrinsic biliary clearance (intrinsic Cl'biliary), effect of BSA-FAF: 4% (w/v) BSA-FAF vs no BSA or BSA
# [2] = molecular target: bovine serum albumin (BSA) / essentially fatty acid-free BSA (BSA-FAF) (Bos taurus, UniProt P02769)
# bovine serum albumin (BSA) / essentially fatty acid-free BSA (BSA-FAF), sequence (P02769 25-607): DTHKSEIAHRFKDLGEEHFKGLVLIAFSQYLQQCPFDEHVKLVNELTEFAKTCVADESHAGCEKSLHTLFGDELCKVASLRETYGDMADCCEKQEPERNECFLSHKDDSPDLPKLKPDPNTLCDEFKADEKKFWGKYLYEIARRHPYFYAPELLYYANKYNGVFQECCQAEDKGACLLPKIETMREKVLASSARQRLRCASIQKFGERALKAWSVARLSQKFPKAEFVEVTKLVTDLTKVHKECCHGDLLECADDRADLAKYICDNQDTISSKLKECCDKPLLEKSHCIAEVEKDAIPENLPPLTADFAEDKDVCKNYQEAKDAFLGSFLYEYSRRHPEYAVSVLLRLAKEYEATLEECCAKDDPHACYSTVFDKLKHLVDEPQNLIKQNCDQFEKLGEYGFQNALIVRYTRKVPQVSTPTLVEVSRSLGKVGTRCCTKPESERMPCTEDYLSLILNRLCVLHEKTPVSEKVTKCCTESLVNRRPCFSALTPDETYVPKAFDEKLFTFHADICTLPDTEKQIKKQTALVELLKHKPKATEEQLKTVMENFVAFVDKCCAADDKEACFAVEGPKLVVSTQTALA
# [3] = literature value, cited from earlier work
# [4] = 4% (w/v) BSA vs no BSA, 10 min incubation
# [5] = six long chain fatty acids added to BSA-FAF, n = 1 liver
# [6] = addition of 1 mM Ca2+ (calcium chloride) to BSA-FAF, n = 1 liver
"unbound intrinsic biliary clearance (intrinsic Cl'biliary), effect of BSA [1, 4]","biliary excretion index (BEI), effect of BSA-FAF ([1]; 10 min incubation)","unbound intrinsic biliary clearance (intrinsic Cl'biliary), effect of BSA-FAF ([1]; 10 min incubation)","BEI in the presence of BSA-FAF, effect of addition of long chain fatty acids [1, 5]","intrinsic Cl'biliary in the presence of BSA-FAF, effect of addition of long chain fatty acids [1, 5]",fu dependence on compound concentration [2],fu in the presence of BSA compared to BSA-FAF [2],"fu in the presence of BSA-FAF, effect of addition of long chain fatty acids [2]","biliary excretion index (BEI), effect of BSA [1, 4]","BEI in the presence of BSA-FAF, effect of additional Ca2+ [1, 6]","intrinsic Cl'biliary in the presence of BSA-FAF, effect of additional Ca2+ [1, 6]",Structure (SMILES),"unbound fraction (fu) ([3]; ref Hatanaka, 2000)","unbound fraction (fu) ([3]; ref Lacy et al., 2002)",accumulation in sandwich-cultured rat hepatocytes ([1]; in the presence of BSA or BSA-FAF vs no BSA),binding to albumin ([2]; bovine),"unbound fraction (fu) ([3]; ref Forker and Luxon, 1981, Hung et al., 2005)"
not significantly different,significantly decreased,significantly decreased,unable to mitigate this effect,unable to mitigate this effect,concentration-independent,significantly higher,unable to mitigate this effect,,,,CC[C@H](C)C(=O)O[C@H]1C[C@H](O)C=C2C=C[C@H](C)[C@H](CC[C@@H](O)C[C@@H](O)CC(=O)O)[C@H]21 [pravastatin],~ 0.5,,,,
not altered,significantly decreased,significantly decreased,,,concentration-independent,significantly higher,,not altered,unable to restore,unable to restore,C[C@H]1O[C@@H](O[C@H]2[C@@H](O)C[C@H](O[C@H]3[C@@H](O)C[C@H](O[C@H]4CC[C@@]5(C)[C@H](CC[C@@H]6[C@@H]5C[C@@H](O)[C@]5(C)[C@@H](C7=CC(=O)OC7)CC[C@]65O)C4)O[C@@H]3C)O[C@@H]2C)C[C@H](O)[C@@H]1O [digoxin],,~ 0.7,,,

Structure (SMILES),"unbound intrinsic biliary clearance (intrinsic Cl'biliary), effect of BSA [1, 4]","biliary excretion index (BEI), effect of BSA-FAF ([1]; 10 min incubation)","unbound intrinsic biliary clearance (intrinsic Cl'biliary), effect of BSA-FAF ([1]; 10 min incubation)","BEI in the presence of BSA-FAF, effect of addition of long chain fatty acids [1, 5]","intrinsic Cl'biliary in the presence of BSA-FAF, effect of addition of long chain fatty acids [1, 5]",fu dependence on compound concentration [2],fu in the presence of BSA compared to BSA-FAF [2],"fu in the presence of BSA-FAF, effect of addition of long chain fatty acids [2]","biliary excretion index (BEI), effect of BSA [1, 4]","BEI in the presence of BSA-FAF, effect of additional Ca2+ [1, 6]","intrinsic Cl'biliary in the presence of BSA-FAF, effect of additional Ca2+ [1, 6]","unbound fraction (fu) ([3]; ref Hatanaka, 2000)","unbound fraction (fu) ([3]; ref Lacy et al., 2002)",accumulation in sandwich-cultured rat hepatocytes ([1]; in the presence of BSA or BSA-FAF vs no BSA),binding to albumin ([2]; bovine),"unbound fraction (fu) ([3]; ref Forker and Luxon, 1981, Hung et al., 2005)"
C[C@H](CCC(=O)NCCS(=O)(=O)O)[C@H]1CC[C@H]2[C@@H]3[C@H](O)C[C@@H]4C[C@H](O)CC[C@]4(C)[C@H]3C[C@H](O)[C@]12C [taurocholate],unaffected,,,,,concentration-independent,significantly higher,,,,,,,notably decreased,approximately 85%,~ 0.15
